# From patent publication US20020137929A1, “1 - (3-heterocyclylphenyl) isothiourea, -isourea, -guanidine and -amidine herbicidal agents” (Intellectual Property Department, BASF Aktiengesellschaft, priority 1998, published 2002)
# Legend:
# [1] = tested on: ECHORC (Watergrass (Calif.)); assay: Preemergence weed control under flooded paddy conditions; assay type: in vivo, Echinochloa oryzoides; conditions: rated 3-4 weeks after treatment
# Summary of the method: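 Seeds or propagules sown in top 0.5 cm of silt loam soil, flooded 1.5 to 3 cm above surface throughout. Compound in 50/50 v/v aqueous/acetone pipetted into flood water at about 0.0313 to 0.500 kg/ha. Visual 0-9 rating versus control after three to four weeks in greenhouse.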
# ECHCG (Barnyardgrass) = assay: Postemergence herbicidal evaluation; assay type: in vivo, Echinochloa crus-galli; conditions: for Herbicidal rating ECHCG: postemergence
# Summary of the method: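 Visual 0-9 injury score (stand, vigor, malformation, size, chlorosis, appearance vs untreated) taken four to five weeks post-spray, averaged across repeat tests. Test plants about two weeks old; foliar spray of acetone/water (1:1) with 0.5% surfactant delivering ~0.0156-0.500 kg active/ha.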
# ORYSAT (Rice, Tebonnet) = assay: Preemergence herbicidal evaluation; assay type: in vivo, Oryza sativa, (L.) Tebonnet; conditions: rated 4-5 weeks after treatment
# Summary of the method: (§1)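 Greenhouse preemergence test: seed-soil mix sown on ~1 inch soil; aqueous acetone spray at equivalent of ~0.0156–0.500 kg/ha; greenhouse-held and watered; scored 0–9 visually at 4–5 weeks.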
# CYPSE (Flatsedge) = assay: Preemergence weed control under flooded paddy conditions; assay type: in vivo, Cyperus serotinus; conditions: rated 3-4 weeks after treatment
# Summary of the method: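 Silt loam, seeds in top 0.5 cm; flood held 1.5-3 cm; test cpd as acetone/water 50/50 into flood water, ~0.0313-0.500 kg/ha a.i.; greenhouse 3-4 wk; visual 0-9 score vs control.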
# [2] = tested on: CHEAL (Lambsquarters, Common); assay: Preemergence herbicidal evaluation; assay type: in vivo, Chenopodium album; conditions: rated 4-5 weeks after treatment
# Summary of the method: as §1
# [3] = rate 0.0156 kg/ha, rating scale 0-9
# [4] = rate 0.0313 kg/ha, rating scale 0-9
# [5] = rate 0.0625 kg/ha, rating scale 0-9
# [6] = rate 0.1250 kg/ha, rating scale 0-9
# [7] = rate 0.2500 kg/ha, rating scale 0-9
Structure (SMILES),"herbicidal effect rating, ECHORC ([1]; 0.0313 kg/ha)","herbicidal effect rating, ECHORC ([1]; 0.0625 kg/ha)","herbicidal effect rating, ECHORC ([1]; 0.1250 kg/ha)","herbicidal effect rating, ECHORC ([1]; 0.2500 kg/ha)",Herbicidal rating ECHCG (ECHCG (Barnyardgrass); rate 0.0156 kg/ha),Herbicidal rating ECHCG (ECHCG (Barnyardgrass); rate 0.0313 kg/ha),Herbicidal rating ECHCG (ECHCG (Barnyardgrass); rate 0.0625 kg/ha),"Preemergence herbicidal rating ORYSAT (ORYSAT (Rice, Tebonnet); rate 0.0156 kg/ha)","herbicidal effect rating, CYPSE (CYPSE (Flatsedge); 0.0313 kg/ha)","herbicidal effect rating, CYPSE (CYPSE (Flatsedge); 0.0625 kg/ha)","herbicidal effect rating, CYPSE (CYPSE (Flatsedge); 0.1250 kg/ha)","herbicidal effect rating, CYPSE (CYPSE (Flatsedge); 0.2500 kg/ha)","Preemergence herbicidal rating ORYSAT (ORYSAT (Rice, Tebonnet); [4])","Preemergence herbicidal rating ORYSAT (ORYSAT (Rice, Tebonnet); [5])","Preemergence herbicidal rating ORYSAT (ORYSAT (Rice, Tebonnet); [6])","Preemergence herbicidal rating ORYSAT (ORYSAT (Rice, Tebonnet); [7])","Preemergence herbicidal rating CHEAL [2, 4]","Preemergence herbicidal rating CHEAL [2, 5]","Preemergence herbicidal rating CHEAL [2, 6]","Preemergence herbicidal rating CHEAL [2, 7]",further results
"Cn1c(C(F)(F)F)cc(=O)n(-c2cc(N=C3SCC(=O)N3CC(=O)OCC3CCCCC3)c(Cl)cc2F)c1=O [Compound 123, Cyclohexylmethyl 2-{{2-chloro-5-[3,6-dihydro-3-methyl-2,6-dioxo-4-(trifluoromethyl)-1(2H)-pyrimidinyl]-4-fluorophenyl}imino}-4-oxo-3-thiazolidineacetate]",7.0,9.0,9.0,9.0,5.0,5.0,7.0,0.0,5.0,9.0,9.0,9.0,–,–,–,–,–,–,–,–,"Herbicidal rating ECHCG (ECHCG (Barnyardgrass); rate 0.1250 kg/ha): 9.0; Preemergence herbicidal rating ORYSAT (ORYSAT (Rice, Tebonnet); rate 0.0313 kg/ha): 0.0; Preemergence herbicidal rating ORYSAT (ORYSAT (Rice, Tebonnet); rate 0.0625 kg/ha): 0.0; Preemergence herbicidal rating ORYSAT (ORYSAT (Rice, Tebonnet); rate 0.1250 kg/ha): 1.0; Preemergence herbicidal rating ORYSAT (ORYSAT (Rice, Tebonnet); rate 0.2500 kg/ha): 3.0; Preemergence herbicidal rating ORYSAT (ORYSAT (Rice, Tebonnet); rate 0.5000 kg/ha): 5.0; Preemergence herbicidal rating CHEAL ([2]; rate 0.0156 kg/ha): 9.0; Preemergence herbicidal rating CHEAL ([2]; rate 0.0313 kg/ha): 9.0; Preemergence herbicidal rating CHEAL ([2]; rate 0.0625 kg/ha): 9.0; Preemergence herbicidal rating CHEAL ([2]; rate 0.1250 kg/ha): 9.0; Preemergence herbicidal rating CHEAL ([2]; rate 0.2500 kg/ha): 9.0; Preemergence herbicidal rating CHEAL ([2]; rate 0.5000 kg/ha): 9.0"
"Cn1c(C(F)(F)F)cc(=O)n(-c2cc(N=C3SCC(=O)N3Cc3cccc(Cl)c3)c(Cl)cc2F)c1=O [Compound 136, 3-{4-Chloro-5-{[3-(m-chlorobenzyl)-4-oxo-2-thiazolidinylidene]amino}-2-fluorophenyl}-1-methyl-6-(trifluoromethyl)-2,4(1H,3H)-pyrimidinedione]",7.0,7.0,7.0,9.0,2.0,3.0,3.0,–,0.0,0.0,0.0,0.0,0.0,0.0,1.0,1.0,9.0,9.0,9.0,9.0,"Preemergence herbicidal rating ORYSAT (ORYSAT (Rice, Tebonnet); [3]): 0.0; Preemergence herbicidal rating CHEAL [2, 3]: 2.0"
"CCOC(=O)CN1C(=O)C(C(=O)OC)SC1=Nc1cc(-n2c(=O)cc(C(F)(F)F)n(C)c2=O)c(F)cc1Cl (centres unmarked) [Compound 128, 5-Carboxy-2-{{2-chloro-5-[3,6-dihydro-3-methyl-2,6-dioxo-4-(trifluoromethyl)-1(2H)-pyrimidinyl]-4-fluorophenyl}imino}-4-oxo-3-thiazolidineacetic acid, 3-ethyl methyl ester]",5.0,7.0,7.0,9.0,1.0,2.0,1.0,0.0,–,0.0,–,3.0,–,–,–,–,–,–,–,–,"Preemergence herbicidal rating ORYSAT (ORYSAT (Rice, Tebonnet); rate 0.0313 kg/ha): 0.0; Preemergence herbicidal rating ORYSAT (ORYSAT (Rice, Tebonnet); rate 0.0625 kg/ha): 0.0; Preemergence herbicidal rating ORYSAT (ORYSAT (Rice, Tebonnet); rate 0.1250 kg/ha): 0.0; Preemergence herbicidal rating ORYSAT (ORYSAT (Rice, Tebonnet); rate 0.2500 kg/ha): 0.0; Preemergence herbicidal rating CHEAL ([2]; rate 0.0156 kg/ha): 9.0; Preemergence herbicidal rating CHEAL ([2]; rate 0.0313 kg/ha): 7.0; Preemergence herbicidal rating CHEAL ([2]; rate 0.0625 kg/ha): 9.0; Preemergence herbicidal rating CHEAL ([2]; rate 0.1250 kg/ha): 9.0; Preemergence herbicidal rating CHEAL ([2]; rate 0.2500 kg/ha): 9.0"
C=C1SC(=Nc2cc(-n3c(=O)cc(C(F)(F)F)n(C)c3=O)c(F)cc2Cl)N(CC(=O)OCC)C1=O [Compound 154],3.0,4.0,7.0,7.0,0.0,0.0,0.0,–,4.0,6.0,9.0,9.0,4.0,8.0,9.0,9.0,9.0,9.0,9.0,9.0,"Preemergence herbicidal rating ORYSAT (ORYSAT (Rice, Tebonnet); [3]): 3.0; Preemergence herbicidal rating CHEAL [2, 3]: 9.0"
"Cn1c(C(F)(F)F)cc(=O)n(-c2cc(N=C3SCC(=O)N3Cc3cc(Cl)cc(Cl)c3)c(Cl)cc2F)c1=O [Compound 150, 3-{4-Chloro-5-{[3-(3,5-dichlorobenzyl)-4-oxo-2-thiazolidinylidene]amino}-2-fluorophenyl}-1-methyl-6-(trifluoromethyl)-2,4(1H,3H)-pyrimidinedione]",6.0,7.0,9.0,9.0,2.0,1.0,2.0,–,–,–,9.0,9.0,0.0,1.0,2.0,1.0,9.0,9.0,9.0,9.0,–
"COCCCN1C(=O)CSC1=Nc1cc(-n2c(=O)cc(C(F)(F)F)n(C)c2=O)c(F)cc1Cl [Compound 172, 3-{4-Chloro-2-fluoro-5-{[3-(3-methoxypropyl)-4-oxo-2-thiazolidinylidene]amino}phenyl}-1-methyl-6-(trifluoromethyl)-2,4(1H, 3H)-pyrimidinedione]",6.0,9.0,9.0,9.0,–,–,–,–,–,6.0,9.0,9.0,–,–,–,–,–,–,–,–,"Postemergence herbicidal rating ECHCG (ECHCG (Barnyardgrass); Rate 0.0313 kg/ha): 3.0; Postemergence herbicidal rating ECHCG (ECHCG (Barnyardgrass); Rate 0.0625 kg/ha): 3.0; Postemergence herbicidal rating ECHCG (ECHCG (Barnyardgrass); rate 0.0156 kg/ha): 2.0; Preemergence herbicidal rating ORYSAT (ORYSAT (Rice, Tebonnet); 0.0156 kg/ha): 2.0; Preemergence herbicidal rating ORYSAT (ORYSAT (Rice, Tebonnet); 0.0313 kg/ha): 5.0; Preemergence herbicidal rating ORYSAT (ORYSAT (Rice, Tebonnet); 0.0625 kg/ha): 7.0; Preemergence herbicidal rating ORYSAT (ORYSAT (Rice, Tebonnet); 0.1250 kg/ha): 7.0; Preemergence herbicidal rating ORYSAT (ORYSAT (Rice, Tebonnet); 0.2500 kg/ha): 8.0; Preemergence herbicidal rating CHEAL ([2]; 0.0156 kg/ha): 9.0; Preemergence herbicidal rating CHEAL ([2]; 0.0313 kg/ha): 9.0; Preemergence herbicidal rating CHEAL ([2]; 0.0625 kg/ha): 9.0; Preemergence herbicidal rating CHEAL ([2]; 0.1250 kg/ha): 9.0; Preemergence herbicidal rating CHEAL ([2]; 0.2500 kg/ha): 9.0"
